From patent publication US20070202079A1, “Therapeutic compositions and methods useful in modulating protein tyrosine phosphatases” (priority 2006, published 2007)

Assays:
[1] = system: WM9 PRL-1R86 transfectant; assay: growth of WM9 PRL-1R86 transfectant, MTT; format: cell-based, human; conditions: 50 or 100 μg/ml, 6 days
Protocol: NIH3T3 (Yi, et al., Blood 85, 87 (1995)), WM9 (Forsberg, et al., Proc. Nat. Acad Sci. USA 90, 393 (1993)), DU145 (Mickey, et al., Cancer Res. 37, 4049 (1977)), LoVo (Drewinko, et al., Cancer Res. 36, 467 (1976)), HEY (Buick, et al., Cancer Res. 45, 3668 (1985)), U251 (Yoshida, et al., Cancer 50, 410 (1982)), A549 (Giard, et al., J. Natl. Cancer Inst. 51, 1417 (1973)) and SK-N-SH (Helson, et al., Cancer Res. 35, 2594 (1975)) cell lines have been described and were cultured in RPMI 1640 supplemented with 10% fetal calf serum (FCS). For measurement of sodium stibogluconate effects on cell growth in vitro, cells were cultured in the absence (−) or presence (+) of various amounts of sodium stibogluconate for 6 days with viable cells quantified by MTT assays (Mosmann, J. Immunol. Methods 65, 55 (1983)). Percentages of growth inhibition by sodium stibogluconate were calculated (.+−.x%).
The effects of sodium stibogluconate on intracellular PTPases were assessed using NIH3T3 or WM9 transfectants. NIH3T3 or WM9 cells were transfected with the pBabepuro vector (V) or pBabepuro expression constructs of Flag-tagged PRLs using Lipofectamine (BRL) following the manufacturer's procedures. […]

NB4 cells = assay: NB4 growth, cell cycle and Annexin V; format: cell-based, human
Protocol: The NB4 cell line (Lanotte et al., Blood 77, 1080 (1991)) was a gift from Dr. Dan Lindner of the Cleveland Clinic Foundation. […] and U937 cell lines were purchased from American Type Culture Collection (Rockville, Md.). These human […] cell lines were maintained in RPMI 1640 medium supplemented with 10% fetal calf serum (FCS). For cell proliferation assays, cells were cultured at 37° C. in 10% FCS medium containing various amounts of sodium stibogluconate for 6 days. The cell numbers in the cultures were determined by an MTT assay as described previously in Mosmann, J. Immunol. Methods 65, 55 (1983).
The cell cycle was analyzed by flow cytometry after 3 days of culture of NB4 cells in the absence or presence of sodium stibogluconate (250 μg/ml) or ATRA (1 μM). Briefly, the cells were fixed in cold ethanol and incubated for 30 minutes at 4° C. in the dark with a solution of […] propidium iodide, 1 mg/ml RNase and 0.1% NP-40. Analysis was performed immediately after staining using the CELLFIT program (Becton Dickinson, Mountain View, Calif.).
Annexin V staining of exposed membrane phospholipid phosphatidylserine (PS) was done using the Annexin V assay kit (Pharmingen, San Diego, Calif.). Briefly, NB4 cells were cultured in the 10% FCS RPMI 1640 medium in the absence or presence of sodium stibogluconate (250 μg/ml) or ATRA (1 μM) for 3 days. Cells were then washed in PBS twice and stained in binding buffer (10 mM Hepes, pH 7.4; 140 mM NaCl; 2.5 mM CaCl2) containing Annexin V-FITC and propidium iodide for 15 min. The reaction was stopped by adding 10 volumes of binding buffer and analyzed by FACS (Becton Dickinson Facsvantage).

`O.O.O.O.O.O.O.O.O.O=C([O-])[C@@H]1[O][Sb]2([O-])([O][Sb]34([OH])[O][C@H]([C@H](O)CO)[C@H]([O]3)[C@H](C(=O)[O-])[O]4)[O][C@H]([C@H](O)CO)[C@@H]1[O]2.[Na+].[Na+].[Na+]` [sodium stibogluconate] was tested, and the “growth inhibition of R86 cells” value [1] was “only modest growth inhibition”, the “Annexin V staining of NB4 cells” value (NB4 cells; 250 μg/ml, 6 days) was “stained positive by Annexin V” and the “proliferation of NB4 cells” value (NB4 cells; 12.5-400 μg/ml) was “markedly inhibited”. For the same compound, the “cell cycle of NB4 cells” value (NB4 cells; sodium stibogluconate 250 μg/ml or ATRA 1 μM, 3 days) was “significant increase of cells at S phase”.
